Inhibition data for 25 molecules are collected here from patent US10435399B2, “HDAC6 inhibitory heterocyclic compound” (TAKEDA PHARMACEUTICAL COMPANY LIMITED, priority 2017, dated 2019).

The test has as its target T1, HDAC6 enzyme (Homo sapiens, UniProt Q9UBN7).
T1 construct: transducing full length HDAC6 gene into Sf-9 insect cells; GST; purchased SignalChem; host or cells: Sf-9 insect cells
T1 sequence (Q9UBN7 1-1215): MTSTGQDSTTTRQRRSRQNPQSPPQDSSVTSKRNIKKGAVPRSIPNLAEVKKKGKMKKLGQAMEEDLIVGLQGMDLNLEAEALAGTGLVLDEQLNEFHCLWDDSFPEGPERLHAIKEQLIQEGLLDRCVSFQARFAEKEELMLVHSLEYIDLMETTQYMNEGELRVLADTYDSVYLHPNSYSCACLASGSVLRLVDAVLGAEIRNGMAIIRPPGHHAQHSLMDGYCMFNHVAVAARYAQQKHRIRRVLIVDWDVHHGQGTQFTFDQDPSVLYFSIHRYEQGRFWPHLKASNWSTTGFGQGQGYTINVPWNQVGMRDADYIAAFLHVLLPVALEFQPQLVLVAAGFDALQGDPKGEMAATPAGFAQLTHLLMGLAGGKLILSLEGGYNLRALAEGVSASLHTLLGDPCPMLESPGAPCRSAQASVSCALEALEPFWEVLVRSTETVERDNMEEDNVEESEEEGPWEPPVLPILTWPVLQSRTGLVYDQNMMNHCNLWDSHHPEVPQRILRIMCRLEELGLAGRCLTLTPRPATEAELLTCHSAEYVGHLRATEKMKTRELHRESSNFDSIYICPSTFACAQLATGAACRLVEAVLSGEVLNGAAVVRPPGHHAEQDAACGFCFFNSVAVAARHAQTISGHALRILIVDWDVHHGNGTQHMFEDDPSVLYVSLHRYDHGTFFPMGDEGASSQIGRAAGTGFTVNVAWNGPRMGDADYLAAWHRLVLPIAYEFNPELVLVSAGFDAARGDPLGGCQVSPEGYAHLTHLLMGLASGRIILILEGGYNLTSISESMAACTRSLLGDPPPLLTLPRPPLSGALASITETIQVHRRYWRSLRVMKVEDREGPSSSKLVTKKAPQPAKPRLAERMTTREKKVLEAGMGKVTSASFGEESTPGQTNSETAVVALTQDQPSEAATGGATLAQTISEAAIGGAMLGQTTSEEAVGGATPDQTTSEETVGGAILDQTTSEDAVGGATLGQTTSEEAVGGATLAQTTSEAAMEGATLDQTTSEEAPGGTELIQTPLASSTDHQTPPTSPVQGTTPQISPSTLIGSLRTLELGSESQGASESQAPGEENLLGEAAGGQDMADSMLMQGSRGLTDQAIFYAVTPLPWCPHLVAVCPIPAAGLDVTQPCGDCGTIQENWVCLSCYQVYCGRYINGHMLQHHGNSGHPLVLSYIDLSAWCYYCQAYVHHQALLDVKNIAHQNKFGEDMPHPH
In words: HDAC6 enzyme inhibitory activity (HDAC-Glo I/II Assay kit). The settings on record: 10 μM; wells without enzyme = 100% inhibition; read-out: HDAC6 inhibitory rate (%) (10 μM). It is filed as biochemical. The method in brief:
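Sf-9-derived GST-purified full-length HDAC6 + cpd, 60 min RT, 24 mM Tris pH 7.5/0.6 mM glutathione/0.01% Tween-20; add HDAC-Glo substrate-developer, 20 min RT; luminescence. No-enzyme = 100% inhibition.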
As for `O=C1c2cc(-c3nnc(C(F)F)o3)ccc2CN1c1ccccc1-c1ccccc1Cl` [Example 281, 2-(2′-chlorobiphenyl-2-yl)-6-(5-(difluoromethyl)-1,3,4-oxadiazol-2-yl)isoindolin-1-one], the inhibition at 10 µM amounted to 98%.

In the case of `O=C1c2cc(-c3nnc(C(F)F)o3)ccc2CN1c1ccccc1-c1ccc(Cl)cc1` [Example 282, 2-(4′-chlorobiphenyl-2-yl)-6-(5-(difluoromethyl)-1,3,4-oxadiazol-2-yl)isoindolin-1-one], the inhibition at 10 µM was 98%.

Consider `O=C1c2cc(-c3nnc(C(F)F)o3)ccc2CN1c1ccccc1-c1cccc(Cl)c1` [Example 283, 2-(3′-chlorobiphenyl-2-yl)-6-(5-(difluoromethyl)-1,3,4-oxadiazol-2-yl)isoindolin-1-one], for which the inhibition at 10 µM worked out at 99%.

Turning to `O=C1c2cc(-c3nnc(C(F)F)o3)ccc2CN1c1ccccc1-c1cc(F)cc(F)c1` [Example 284, 2-(3′,5′-difluorobiphenyl-2-yl)-6-(5-(difluoromethyl)-1,3,4-oxadiazol-2-yl)isoindolin-1-one], the inhibition at 10 µM came to 101%.

As for `O=C1c2cc(-c3nnc(C(F)F)o3)ccc2CN1c1ccccc1-c1ccc(C2CC2)cc1` [Example 285, 2-(4′-cyclopropylbiphenyl-2-yl)-6-(5-(difluoromethyl)-1,3,4-oxadiazol-2-yl)isoindolin-1-one], the inhibition at 10 µM amounted to 95%.

As for `O=C1c2cc(-c3nnc(C(F)F)o3)ccc2CN1c1ccccc1-c1cccc(C2CC2)c1` [Example 286, 2-(3′-cyclopropylbiphenyl-2-yl)-6-(5-(difluoromethyl)-1,3,4-oxadiazol-2-yl)isoindolin-1-one], the inhibition at 10 µM turned out to be 99%.

In the case of `O=C1c2cc(-c3nnc(C(F)F)o3)ccc2CN1c1ccccc1-c1ccc2c(c1)CCO2` [Example 287, 6-(5-(difluoromethyl)-1,3,4-oxadiazol-2-yl)-2-(2-(2,3-dihydro-1-benzofuran-5-yl)phenyl)isoindolin-1-one], the inhibition at 10 µM came out at 100%.

Regarding `O=C1c2cc(-c3nnc(C(F)F)o3)ccc2CN1c1ccccc1-c1cccc2c1CCO2` [Example 288, 6-(5-(difluoromethyl)-1,3,4-oxadiazol-2-yl)-2-(2-(2,3-dihydro-1-benzofuran-4-yl)phenyl)isoindolin-1-one], the inhibition at 10 µM was 102%.

Turning to `O=C1c2cc(-c3nnc(C(F)F)o3)ccc2CN1c1ccccc1-c1cccc2c1OCC2` [Example 289, 6-(5-(difluoromethyl)-1,3,4-oxadiazol-2-yl)-2-(2-(2,3-dihydro-1-benzofuran-7-yl)phenyl)isoindolin-1-one], the inhibition at 10 µM was determined as 101%.

Turning to `CCOc1cc(-c2ccccc2N2Cc3ccc(-c4nnc(C(F)F)o4)cc3C2=O)ccn1` [Example 290, 6-(5-(difluoromethyl)-1,3,4-oxadiazol-2-yl)-2-(2-(2-ethoxypyridin-4-yl)-phenyl)isoindolin-1-one], the inhibition at 10 µM amounted to 99%.

With `CCOc1cnccc1-c1ccccc1N1Cc2ccc(-c3nnc(C(F)F)o3)cc2C1=O` [Example 291, 6-(5-(difluoromethyl)-1,3,4-oxadiazol-2-yl)-2-(2-(3-ethoxypyridin-4-yl)-phenyl)isoindolin-1-one], the inhibition at 10 µM was determined as 98%.

As for `O=C1c2cc(-c3nnc(C(F)F)o3)ccc2CN1c1ccccc1-c1ccc(C(F)F)cc1` [Example 292, 2-(4′-(difluoromethyl)-biphenyl-2-yl)-6-(5-(difluoromethyl)-1,3,4-oxadiazol-2-yl)isoindolin-1-one], the inhibition at 10 µM was determined as 97%.

For the molecule `O=C1c2cc(-c3nnc(C(F)F)o3)ccc2CN1c1ccccc1-c1cccc(C(F)F)c1` [Example 293, 2-(3′-(difluoromethyl)-biphenyl-2-yl)-6-(5-(difluoromethyl)-1,3,4-oxadiazol-2-yl)isoindolin-1-one], the inhibition at 10 µM was 100%.

`CC(C)Oc1cc(-c2ccccc2N2Cc3ccc(-c4nnc(C(F)F)o4)cc3C2=O)ccn1` [Example 294, 6-(5-(difluoromethyl)-1,3,4-oxadiazol-2-yl)-2-(2-(2-isopropoxypyridin-4-yl)phenyl)isoindolin-1-one]: the inhibition at 10 µM was found to be 100%.

As to `COc1ncc(Cl)cc1-c1ccccc1N1Cc2ccc(-c3nnc(C(F)F)o3)cc2C1=O` [Example 295, 2-(2-(5-chloro-2-methoxy-pyridin-3-yl)phenyl)-6-(5-(difluoromethyl)-1,3,4-oxadiazol-2-yl)isoindolin-1-one], the inhibition at 10 µM came to 102%.

With `O=C1c2cc(-c3nnc(C(F)F)o3)ccc2CN1c1ccccc1-c1cccc(OC(F)F)c1` [Example 296, 2-(3′(difluoromethoxy)-biphenyl-2-yl)-6-(5-(difluoromethyl)-1,3,4-oxadiazol-2-yl)isoindolin-1-one], the inhibition at 10 µM is 101%.

With `O=C1c2cc(-c3nnc(C(F)F)o3)ccc2CN1c1ccccc1-c1cncc(C(F)(F)F)c1` [Example 297, 6-(5-(difluoromethyl)-1,3,4-oxadiazol-2-yl)-2-(2-(5-(trifluoromethyl)pyridin-3-yl)phenyl)isoindolin-1-one], the inhibition at 10 µM amounted to 98%.

On to `O=C1c2cc(-c3nnc(C(F)F)o3)ccc2CN1c1ccccc1-c1ccccc1OC(F)(F)F` [Example 298, 6-(5-(difluoromethyl)-1,3,4-oxadiazol-2-yl)-2-(2′-(trifluoromethoxy)biphenyl-2-yl)isoindolin-1-one], for which the inhibition at 10 µM came out at 100%.

`O=C1c2cc(-c3nnc(C(F)F)o3)ccc2CN1c1ccccc1-c1ccc(OC(F)(F)F)cc1` [Example 299, 6-(5-(difluoromethyl)-1,3,4-oxadiazol-2-yl)-2-(4′-(trifluoromethoxy)biphenyl-2-yl)isoindolin-1-one]: the inhibition at 10 µM is 94%.

On to `O=C1c2cc(-c3nnc(C(F)F)o3)ccc2CN1c1ccccc1-c1cccc(OC(F)(F)F)c1` [Example 300, 6-(5-(difluoromethyl)-1,3,4-oxadiazol-2-yl)-2-(3′-(trifluoromethoxy)biphenyl-2-yl)isoindolin-1-one], for which the inhibition at 10 µM came out at 97%.

`O=C1c2cc(-c3nnc(C(F)F)o3)ccc2CN1c1ccccc1-c1cccc(F)n1` [Example 301, 6-(5-(difluoromethyl)-1,3,4-oxadiazol-2-yl)-2-(2-(6-fluoropyridin-2-yl)phenyl)-isoindolin-1-one]: the inhibition at 10 µM was found to be 106%.

For `COc1cccc(-c2ccccc2N2Cc3ccc(-c4nnc(C(F)F)o4)cc3C2=O)n1` [Example 302, 6-(5-(difluoromethyl)-1,3,4-oxadiazol-2-yl)-2-(2-(6-methoxypyridin-2-yl)-phenyl)isoindolin-1-one], the inhibition at 10 µM turned out to be 100%.

As to `O=C1c2cc(-c3nnc(C(F)F)o3)ccc2CN1c1ccccc1-c1cnc2occc2c1` [Example 303, 6-(5-(difluoromethyl)-1,3,4-oxadiazol-2-yl)-2-(2-(furo-[2,3-b]pyridin-5-yl)phenyl)-isoindolin-1-one], the inhibition at 10 µM turned out to be 99%.

As to `O=C1c2cc(-c3nnc(C(F)F)o3)ccc2CN1c1ccccc1-c1ccc2c(c1)OCC2` [Example 304, 6-(5-(difluoromethyl)-1,3,4-oxadiazol-2-yl)-2-(2-(2,3-dihydro-1-benzofuran-6-yl)phenyl)isoindolin-1-one], the inhibition at 10 µM stood at 99%.

As to `O=C1c2cc(-c3nnc(C(F)F)o3)ccc2CN1c1ccccc1-c1cccc(Cl)n1` [Example 305, 2-(2-(6-chloropyridin-2-yl)-phenyl)-6-(5-(difluoro-methyl)-1,3,4-oxadiazol-2-yl)isoindolin-1-one], the inhibition at 10 µM was 101%.
